According to US20070104716A1, “Methods for controlling pathological angiogenesis by inhibition of a6b4 integrin” (SLOAN-KETTERING INSTITUTE FOR CANCER RESEARCH, priority 2003, published 2007):

Test system: HUVECs expressing wild-type α6β4
Experiment: in vitro wound closure (migration) assay on laminin-5 in response to bFGF
Type: cell-based, Human
Settings: plated on laminin-5, bFGF, wound closure at 8 hours (FIG. 4A)
Method: When indicated, migrating cells were treated with the NF-kB inhibitor BAY 11-7082 ([…]) or the MAPK inhibitor PD98059 (50 μM).
To examine the effect of α6β4 signaling on endothelial cell migration, parental HUVECS and their derivatives expressing either wild-type or mutant α6β4 were plated on laminin-5 at confluency and subjected to in vitro wound assay. Expression of wild-type α6β4 increased endothelial cell migration in response to bFGF.
To examine the role of ERK and NF-OB signaling in endothelial cell migration, HUVECs expressing wild-type α6β4 were subjected to in vitro wound closure assay in the presence of the MEK inhibitor PD98059 or the NF-kB inhibitor BAYI 1-072.
HUVECs were electroporated with equimolar amounts of plasmids encoding α6 and either β4 or β4-1355T (Dans et al., 2001), deprived of growth factors for 18 hours, and then panned on plates coated with the anti-β4 mAb 3E1. Bound cells were washed with PBS and recovered by trypsin-EDTA treatment. For in vitro wound assays, equal numbers of cells expressing wild-type β4 or mutant β4-1355T were plated on dishes coated with laminin-5, grown until confluent, and starved. […] Wound closure was monitored by digital photography. […] HUVECS Invasion was quantified 72 hours later by counting the average number of capillary-like structures per microcarrier bead.

Row | SMILES | migration of α6β4-expressing HUVECs (wound closure) (PD98059 50 μM) | migration of α6β4-expressing HUVECs (wound closure) (BAY 11-7082 12.5PM)
1 | COc1cccc(-c2cc(=O)c3ccccc3o2)c1N [PD98059] | reduced the migration of α6β4-expressing HUVECs to levels similar to those displayed by control HUVECs or HUVECs expressing mutant α6β4 | –
2 | Cc1ccc(S(=O)(=O)/C=C/C#N)cc1 [BAYI 1-072] | – | reduced the migration of α6β4-expressing HUVECs to levels similar to those displayed by control HUVECs or HUVECs expressing mutant α6β4
